Laboratory results from ChEMBL document CHEMBL4184249, “Structural development of tetrachlorophthalimides as liver X receptor β (LXRβ)-selective agonists with improved aqueous solubility” (Bioorg Med Chem Lett, 2018).
Calls of active or inactive are those of the source. The rule behind the calls is not given here.

Tests used:
Format in all cases: cell-based
[1] = target: T1, Peroxisome proliferator-activated receptor gamma (Homo sapiens) (UniProt P37231); assay: Agonist activity at GAL4-tagged PPARgamma (unknown origin) expressed in HEK293 cells co-expressing CMX-beta-galactosidase at 0.3 to 30 uM incubated for 16 hrs by luciferase reporter gene assay
T1 sequence (whole entry): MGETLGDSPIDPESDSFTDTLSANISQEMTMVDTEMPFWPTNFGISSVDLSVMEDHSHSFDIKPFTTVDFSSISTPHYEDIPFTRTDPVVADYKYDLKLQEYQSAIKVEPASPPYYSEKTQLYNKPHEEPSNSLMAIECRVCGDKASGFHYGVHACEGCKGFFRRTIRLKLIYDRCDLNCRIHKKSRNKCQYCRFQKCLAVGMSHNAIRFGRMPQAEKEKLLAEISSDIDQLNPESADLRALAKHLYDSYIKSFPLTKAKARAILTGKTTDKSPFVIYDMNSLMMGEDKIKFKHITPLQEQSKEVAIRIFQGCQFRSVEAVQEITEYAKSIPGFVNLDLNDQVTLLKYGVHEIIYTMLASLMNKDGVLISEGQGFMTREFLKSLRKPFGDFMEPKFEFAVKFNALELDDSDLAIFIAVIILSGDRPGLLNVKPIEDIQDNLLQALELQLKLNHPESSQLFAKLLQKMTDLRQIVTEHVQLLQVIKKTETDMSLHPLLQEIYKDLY

[2] = target: T2, Retinoic acid receptor beta (Homo sapiens) (UniProt P10826); assay: Agonist activity at GAL4-tagged RARbeta (unknown origin) expressed in HEK293 cells co-expressing CMX-beta-galactosidase at 0.3 to 30 uM incubated for 16 hrs by luciferase reporter gene assay
T2 sequence (whole entry): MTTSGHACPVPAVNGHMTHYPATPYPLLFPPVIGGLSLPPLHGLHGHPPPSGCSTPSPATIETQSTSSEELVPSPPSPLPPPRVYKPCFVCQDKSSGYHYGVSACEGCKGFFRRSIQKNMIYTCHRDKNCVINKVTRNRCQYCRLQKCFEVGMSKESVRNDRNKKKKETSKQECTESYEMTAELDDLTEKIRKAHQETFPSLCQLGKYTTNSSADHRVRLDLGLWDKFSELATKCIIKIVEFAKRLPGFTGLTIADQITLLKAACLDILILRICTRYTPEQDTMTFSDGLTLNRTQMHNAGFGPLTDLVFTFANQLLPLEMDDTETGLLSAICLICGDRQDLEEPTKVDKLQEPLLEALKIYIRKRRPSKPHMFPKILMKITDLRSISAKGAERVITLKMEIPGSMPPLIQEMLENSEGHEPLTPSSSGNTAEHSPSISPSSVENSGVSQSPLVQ

[3] = target: T3, Retinoic acid receptor RXR-beta (Homo sapiens) (UniProt P28702); assay: Agonist activity at GAL4-tagged RXRbeta (unknown origin) expressed in HEK293 cells co-expressing CMX-beta-galactosidase at 0.3 to 30 uM incubated for 16 hrs by luciferase reporter gene assay
T3 sequence (whole entry): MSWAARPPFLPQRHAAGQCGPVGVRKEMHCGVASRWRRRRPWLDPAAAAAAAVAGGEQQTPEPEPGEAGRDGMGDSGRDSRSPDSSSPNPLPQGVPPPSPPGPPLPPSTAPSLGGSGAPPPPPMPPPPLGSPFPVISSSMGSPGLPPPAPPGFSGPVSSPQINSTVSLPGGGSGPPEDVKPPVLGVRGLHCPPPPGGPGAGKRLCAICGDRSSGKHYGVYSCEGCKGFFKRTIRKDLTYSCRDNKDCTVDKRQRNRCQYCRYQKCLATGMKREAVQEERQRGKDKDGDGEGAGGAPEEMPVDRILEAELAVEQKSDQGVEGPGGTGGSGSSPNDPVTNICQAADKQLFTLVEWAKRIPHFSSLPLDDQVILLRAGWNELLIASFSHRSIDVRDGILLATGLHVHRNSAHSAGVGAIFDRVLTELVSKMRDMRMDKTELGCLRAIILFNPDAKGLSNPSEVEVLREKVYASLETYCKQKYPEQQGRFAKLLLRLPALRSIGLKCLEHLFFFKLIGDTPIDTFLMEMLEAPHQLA

[4] = target: T4, Bile acid receptor (Homo sapiens) (UniProt Q96RI1); assay: Agonist activity at GAL4-tagged FXR (unknown origin) expressed in HEK293 cells co-expressing CMX-beta-galactosidase at 0.3 to 30 uM incubated for 16 hrs by luciferase reporter gene assay
T4 sequence (whole entry): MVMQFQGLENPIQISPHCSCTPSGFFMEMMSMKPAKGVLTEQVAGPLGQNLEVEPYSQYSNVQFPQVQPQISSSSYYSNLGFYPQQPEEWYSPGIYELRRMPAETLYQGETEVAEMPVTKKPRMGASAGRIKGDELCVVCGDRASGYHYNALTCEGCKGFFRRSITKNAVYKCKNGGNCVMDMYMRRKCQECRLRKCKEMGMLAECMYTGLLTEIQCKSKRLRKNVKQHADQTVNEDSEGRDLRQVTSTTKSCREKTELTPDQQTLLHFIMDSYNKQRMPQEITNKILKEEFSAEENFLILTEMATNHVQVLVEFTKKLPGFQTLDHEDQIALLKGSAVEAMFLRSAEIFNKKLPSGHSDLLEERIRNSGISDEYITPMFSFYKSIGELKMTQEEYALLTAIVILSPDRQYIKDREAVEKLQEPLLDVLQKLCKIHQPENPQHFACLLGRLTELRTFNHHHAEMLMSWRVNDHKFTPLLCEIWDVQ

[5] = target: T5, Oxysterols receptor LXR-beta (Homo sapiens) (UniProt P55055); assay: Agonist activity at LXRbeta in human THP1 cells assessed as increase in ABCA1 mRNA expression at 0.1 uM by real-time quantitative RT-PCR method
T5 sequence (whole entry): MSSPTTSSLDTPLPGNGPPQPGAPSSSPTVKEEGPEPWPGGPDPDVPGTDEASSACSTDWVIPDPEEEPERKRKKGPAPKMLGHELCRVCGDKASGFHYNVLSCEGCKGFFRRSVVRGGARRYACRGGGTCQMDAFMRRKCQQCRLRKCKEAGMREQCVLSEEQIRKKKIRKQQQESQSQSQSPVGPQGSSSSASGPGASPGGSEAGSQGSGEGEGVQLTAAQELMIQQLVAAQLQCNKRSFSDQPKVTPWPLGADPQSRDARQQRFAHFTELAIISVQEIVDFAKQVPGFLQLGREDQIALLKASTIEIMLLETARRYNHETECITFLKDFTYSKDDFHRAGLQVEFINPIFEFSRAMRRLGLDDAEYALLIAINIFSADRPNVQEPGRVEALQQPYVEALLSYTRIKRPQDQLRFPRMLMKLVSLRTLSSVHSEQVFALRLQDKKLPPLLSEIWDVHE

## O=C1c2c(Cl)c(Cl)c(Cl)c(Cl)c2C(=O)N1c1ccccc1/C=C/c1cccs1
[1]
  Activity: inactive
[2]
  Activity: inactive
[3]
  Activity: inactive
[4]
  Efficacy: 9%
[5]
  Activity: Active
